Experimental data taken from patent US9427415B2, “Methods and compositions for modifying sensorial perception” (The Procter & Gamble Company, priority 2014, dated 2016).
Structures can show the parent of a compound that is named as a salt. Where two headings read alike, the source gives them in different places.

Legend:
[1] = molecular target: T1, human TRPA1 (Homo sapiens, UniProt O75762, K186N/R3C/R58T); experiment: Intracellular calcium (Fluo-4, FLIPR) activation of TRPA1 cells by GRAS compounds; assay type: cell-based; details: relative to AITC 30 μM; for activation at 1000 µM / activation at 100 µM: read-out: A1 activation, % of agonist value;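 as to all read-outs here: TRPA1-expressing cells, fluorescence read on a FLIPR Tetra (ex 488 nm, em 514 nm) every 2 s for 10 min after compound addition, baseline subtracted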
T1 construct: expressed in transfected cells; pcDNA3 control cells

[2] = tested on: TRPA1V1; experiment: Intracellular calcium (Fluo-4, FLIPR) activation of TRPA1V1 cells (co-expressing TRPA1 and TRPV1) by GRAS compounds; assay type: cell-based, human; details: relative to AITC 30 μM;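 also: HEK293 cells co-expressing TRPA1 and TRPV1, fluorescence read at 488/514 nm after baseline subtraction, recorded every 2 s over 10 min, ionomycin 10 µM and buffer as controls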
Protocol: TRPV1, TRPA1, TRPA1V1 and pcDNA3 cells were grown in 15 mL growth medium [high glucose DMEM (Dulbecco's modification of Eagle's medium) supplemented with 10% FBS (fetal bovine serum), 100 μg/mL penicillin/streptomycin, 100 μg/mL G418] in a 75 cm^2 flask for 3 days in a mammalian cell culture incubator at 33° C. and 5% CO2. TRP Cells were detached with 8 mL of PBS (without calcium or magnesium); for pcDNA3 cells, trypsin was used for releasing the cells. The detached cells were spun at low speed (800-900 rpm for 3 min) to pellet the cells. […] The cells were washed once with 45 mL assay buffer (1×HBSS, 20 mM HEPES) by low speed centrifugation (800-900 rpm for 3 min) and resuspended in 11 mL of the assay buffer in a reagent reservoir. […] The plates were set at room temperature for 30 min. The plates were read in a FLIPR^TETRA instrument (Molecular Devices, Sunnyvale, Calif.) at λex 488 nm and λem 514 nm to record baseline fluorescence following which 20 μL of test material at 1 mM or 100 μM final concentration for pure compounds in a GRAS library or 0.004% for extracts. For agonists, capsaicin 350 nM and AITC at 30 μM; and for controls, ionomycin 10 μM and buffer alone) was added to each well using the dispenser provided in the FLIPR. The data point was recorded every 2 seconds for a total of 10 min.
Average value for activation from three independent assay plates are presented as % of agonist value (AITC, 30 μM for TRPA1 and capsaicin, 350 nM for TRPV1. For TRPA1V1, we used AITC, 30 μM or capsaicin, 350 nM depending on if the compound is an A1 agonist or a V1 agonist. For compounds that activated both A1 and V1, we used AITC for normalization). Variation among triplicates was within 10% of each other. Assayed at 1 mM for pure compounds and 0.004% for extracts.

T1 sequence (O75762 whole entry R3C/R58T/K186N): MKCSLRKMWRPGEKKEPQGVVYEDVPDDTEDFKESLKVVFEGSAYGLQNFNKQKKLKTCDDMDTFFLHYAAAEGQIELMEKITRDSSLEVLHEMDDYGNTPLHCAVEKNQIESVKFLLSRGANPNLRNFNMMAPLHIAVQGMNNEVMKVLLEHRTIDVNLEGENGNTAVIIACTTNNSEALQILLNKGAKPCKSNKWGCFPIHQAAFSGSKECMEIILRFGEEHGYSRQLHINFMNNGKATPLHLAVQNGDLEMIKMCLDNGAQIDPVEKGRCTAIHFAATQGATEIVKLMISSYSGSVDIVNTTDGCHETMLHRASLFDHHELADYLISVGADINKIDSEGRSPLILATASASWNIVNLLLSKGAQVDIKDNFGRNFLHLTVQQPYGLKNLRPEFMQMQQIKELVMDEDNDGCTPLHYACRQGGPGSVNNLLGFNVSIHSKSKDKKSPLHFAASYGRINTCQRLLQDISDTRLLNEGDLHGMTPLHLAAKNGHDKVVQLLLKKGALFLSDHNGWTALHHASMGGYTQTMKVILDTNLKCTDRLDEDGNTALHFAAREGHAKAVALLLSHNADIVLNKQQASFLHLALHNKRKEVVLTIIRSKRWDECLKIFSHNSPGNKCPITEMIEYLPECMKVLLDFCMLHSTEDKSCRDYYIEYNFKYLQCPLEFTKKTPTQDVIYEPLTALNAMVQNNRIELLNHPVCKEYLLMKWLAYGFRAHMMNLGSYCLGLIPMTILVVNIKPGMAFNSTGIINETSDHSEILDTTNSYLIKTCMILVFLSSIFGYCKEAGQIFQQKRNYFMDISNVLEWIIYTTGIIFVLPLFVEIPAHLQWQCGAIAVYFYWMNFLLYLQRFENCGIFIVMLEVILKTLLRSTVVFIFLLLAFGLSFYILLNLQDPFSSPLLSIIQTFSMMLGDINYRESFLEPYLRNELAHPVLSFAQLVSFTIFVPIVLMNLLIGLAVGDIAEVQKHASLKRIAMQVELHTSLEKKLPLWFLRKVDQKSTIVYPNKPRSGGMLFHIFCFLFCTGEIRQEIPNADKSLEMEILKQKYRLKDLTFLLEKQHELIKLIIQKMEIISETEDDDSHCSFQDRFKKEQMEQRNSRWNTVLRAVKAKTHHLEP

Compound	activation at 1000 µM ([1]; Table 1(c), 1 mM)	A1V1 activation, % of agonist value ([2]; Table 1(c), 1 mM)	further results
Cc1cccc(C)c1S [2,6-Dimethylthiophenol]	84.4%	85.5%	–
CC(C)N=C=S [Isopropyl isothiocyanate]	–	–	activation at 1000 µM ([1]; Table 1(e), 1 mM): 41.8%; A1V1 activation, % of agonist value ([2]; Table 1(e), 1 mM): 71.6%
CC(=O)Cc1ccco1 [2-Furylacetone]	60.8%	59.5%	–
CCC(=O)OCc1ccccc1 [Benzyl propionate]	103%	90.7%	–
CC(C)C(=O)OCC(C)c1ccccc1 (stereo not drawn) [2-Phenylpropyl isobutyrate]	–	–	activation at 1000 µM ([1]; Table 1(e), 1 mM): 67.4%; A1V1 activation, % of agonist value ([2]; Table 1(e), 1 mM): 102.3%
C=C(C)[C@@H]1CC=C(C=O)CC1 [L-Perillaldehyde]	–	138.2%	A1 activation, % of agonist value ([1]; Table 1(c), 1 mM): 127.7%
CC/C=C/C=O [Trans-2-Pentenal]	80.9%	68.62%	–
COc1ccc(CCC(C)=O)cc1 [4-Methoxybenzylacetone]	62.3%	71.16%	–
COC(=O)CCCc1ccccc1 [Methyl 4-phenylbutyrate]	58.4%	50.30%	–
OCc1ccccc1 [Benzenemethanol]	79.6%	78.47%	–
CC(=O)c1ccc(O)cc1 [p-Hydroxyacetophenone]	52.8%	49.38%	–
O=CC=Cc1ccco1 [3-(2-Furyl)acrolein]	68.4%	66.5%	–
O=CC1=CCCCC1 [1-Cyclohexene-1-carboxaldehyde]	45.9%	48.37%	–
CC/C=C\CC/C=C/C(OCC)OCC [2,6-Nonadiene, 1,1-diethoxy-, (E,Z)-]	89.3%	74.31%	–
L-Ascorbic acid, calcium salt (2:1)	–	93.20%	A1 activation, % of agonist value ([1]; Table 1(c), 1 mM): 88.00%
CC1=CCC(C(C)(C)OC=O)CC1 (stereo not drawn) [alpha-Terpinyl formate]	–	71%	A1 activation, % of agonist value ([1]; Table 1(c), 1 mM): 82.2%
CCCC(CCOC(C)=O)SC (stereo not drawn) [3-(Methylthio)hexyl acetate]	97.9%	87.6%	–
CC(C)=CCCC(C)=CC=O [Citral]	145%	132.7%	–
CCCCCC=CC(=O)OCC [Ethyl 2-octenoate]	128%	120%	–
CC1=CC(=O)[C@@H](C(C)C)CC1 [L-Piperitone]	–	–	A1 activation, % of agonist value ([1]; Table 1(e), 1 mM): 45%; A1V1 activation, % of agonist value ([2]; Table 1(e), 1 mM): 68.40%
Myrtenal	–	111.3%	A1 activation, % of agonist value ([1]; Table 1(c), 1 mM): 95.8%
C=CCCCCCCCCC=O [10-Undecenal]	–	–	activation at 1000 µM ([1]; Table 1(d), 1 mM): 61.8%; A1V1 activation, % of agonist value ([2]; Table 1(d), 1 mM): 28%

Compound	activation at 1000 µM ([1]; Table 1(c), 1 mM)	A1V1 activation, % of agonist value ([2]; Table 1(c), 1 mM)	further results
CC/C=C/C=C/CO [(E,E)-Hepta-2,4-dien-1-ol]	146%	133.3%	–
CC(=O)OCC=Cc1ccccc1 [Cinnamyl acetate]	85%	89.73%	–
CC1=C(/C=C/C(C)=C/C=C/C(C)=C/CO)C(C)(C)CCC1 [Retinol]	80%	67.79%	–
C=CCc1ccc(OC(C)=O)c(OC)c1 [Eugenyl acetate]	75.4%	83.94%	–
CCCCCCCC/C=C/C=O [(2E)-Undecenal]	–	48.8%	A1 activation, % of agonist value ([1]; Table 1(c), 1 mM): 59.6%
O=C(OCCc1ccccc1)c1ccco1 [2-Furoic acid, phenethyl ester]	155%	145%	–
CNc1ccccc1C(=O)OC [Methyl N-methylanthranilate]	83.6%	86.81%	–
Cc1c[nH]c2ccccc12 [Skatole]	116%	102.9%	activation at 100 µM ([1]; Table 1(c), 100 μM (*)): 66.2%; A1V1 activation, % of agonist value ([2]; Table 1(c), 100 μM (*)): 71.4%
OCC(=CCc1ccco1)c1ccccc1 [3-(2-Furfuryl)-2-phenylpropenol]	–	–	A1 activation, % of agonist value ([1]; Table 1(c), 100 μM (*)): 81.3%; A1V1 activation, % of agonist value ([2]; Table 1(c), 100 μM (*)): 72.4%
CC/C=C\CCOC(=O)C/C=C\CC [cis-3-Hexenyl cis-3-hexenoate]	107%	97.4%	–
O=C(c1ccccc1)C(O)c1ccccc1 (stereo not drawn) [Benzoin]	–	–	activation at 1000 µM ([1]; Table 1(e), 1 mM): 26.2%; A1V1 activation, % of agonist value ([2]; Table 1(e), 1 mM): 61.81%
CC=CC=CCO [2,4-Hexadienol]	78%	78.68%	–
CCC(=O)C=CC1C(C)=CCCC1(C)C (stereo not drawn)	–	–	A1 activation, % of agonist value ([1]; Table 1(d), 1 mM): 97.3%; A1V1 activation, % of agonist value ([2]; Table 1(d), 1 mM): 69.7%
CCCCCCCCCC(=O)O [Decanoic acid]	65.1%	73.45%	–
C=CC(C)(CCC=C(C)C)OC(=O)c1ccccc1 (stereo not drawn) [Linalyl benzoate]	–	–	activation at 100 µM ([1]; Table 1(c), 100 μM (*)): 44.4%; A1V1 activation, % of agonist value ([2]; Table 1(c), 100 μM (*)): 55.3%
CC(=O)OCc1ccccc1C [O-Methylbenzyl acetate]	–	77.24%	A1 activation, % of agonist value ([1]; Table 1(c), 1 mM): 87.22%
CSCCCN=C=S [Propane, 1-isothiocyanato-3-(methylthio)-]	–	–	activation at 1000 µM ([1]; Table 1(e), 1 mM): 81.6%; A1V1 activation, % of agonist value ([2]; Table 1(e), 1 mM): 114.6%
CC(=O)c1ccc2ccccc2c1 [2-Acetylnaphthalene]	60.3%	69.41%	–
CC(=O)/C=C/C1C(C)=CCCC1(C)C (racemic) [(+/−)-Alpha-Ionone]	–	64.21%	A1 activation, % of agonist value ([1]; Table 1(c), 1 mM): 64.62%
CCCC(=O)OCCC(C)CCC=C(C)C (stereo not drawn) [Citronellyl butyrate]	–	–	activation at 100 µM ([1]; Table 1(c), 100 μM (*)): 44.9%; A1V1 activation, % of agonist value ([2]; Table 1(c), 100 μM (*)): 57.9%
OC[C@H]1O[C@@](CO)(O[C@H]2O[C@H](CO)[C@@H](O)[C@H](O)[C@H]2O)[C@@H](O)[C@@H]1O [Sucrose]	84.1%	80.86%	–
CSSc1ccoc1C [Methyl 2-methyl-3-furyl disulfide]	52.6%	52%	–
